Reference: patent US12692257B2, “2,4,6-tri-substituted pyrimidine compounds as ATR kinase inhibitors” (BEIJING TIDE PHARMACEUTICAL CO., LTD., priority 2020, dated 2026)

Tests used:
[1] = target: ATR kinase (Homo sapiens, UniProt Q13535); assay: Assay of ATR kinase activity (time-resolved fluorescence, phosphorylation of p53-derived protein); type: biochemical
Protocol: Biotinylated protein derived from p53 (Eurofins, art. No.: 14-952) was phosphorylated with ATR kinase. The amount of phosphorylated protein was determined by time-resolved fluorescence in this assay. The amount of phosphorylated protein was detected by anti-p53-phospho-(serine 15)-K-specific antibody (Cisbio, art. No.: 61GSTDLA) and d2 labeled anti-GST antibody (Cisbio, art. No. 61P08KAE). Before the assay, the following working solutions were formulated as required: 1×reaction buffer (20 mM HEPES PH8.0, 1% glycerol, 0.01% Brij-35), dilution buffer (20 mM HEPES PH8.0, 1% glycerol, 0.01% Brij-35, 5 mM DTT and 1% BSA), stop solution (20 mM HEPES PH8.0, 1% glycerol, 0.01% Brij-35, 250 mM EDTA), detection buffer (50 mM HEPES pH7.0, 150 mM NaCl, 267 mM KF, 0.1% sodium cholate, 0.01% Tween-20, 0.0125% sodium azide). The reagents used above were purchased from Sigma or Invitrogen, except for those whose manufacturers were mentioned.
Operations were as follows:
4× serially diluted compound solutions were prepared with 1× reaction buffer to give 9 compound solutions with different concentrations, and 2.5 μL of the 4× serially diluted compound solutions were added to a 384-well analysis plate (784075, Greiner). 4×p53 substrate working solution (40 nM) was prepared with 1× reaction buffer, and 2.5 μL of the 4×p53 substrate working solution was added to a 384-well analysis plate. 4×ATR/ATRIP working solution (12.8 ng/μL) was prepared with dilution buffer, and 2.5 μL of the 4×pATR/ATRIP working solution was added to a 384-well analysis plate. 4×ATP working solution (2 mM) was prepared with deionized water, and 2.5 μL of the 4×ATP working solution was added to a 384-well analysis plate. The plates were incubated at room temperature in dark for 30 minutes. 5 μL of stop solution was added to the 384 analysis plates. Finally, 5 μL of assay mixture (0.084 ng/μL Anti-phospho-p53(ser15)-K and 5 ng/μL Anti-GST-d2) was added to the 384 well analysis plates, and incubated at room temperature overnight. The fluorescence signal was detected with ENVISION (Perkinelmer) instrument (excitation wavelength: 320 nm, emission wavelength: 665 nm and 615 nm). The inhibition rate in each well was calculated by the fluorescence intensity value in each well:ER (Emission Ratio)=(Fluorescence intensity at 665 nm/Fluorescence intensity at 615 nm); inhibition rate=(ER of positive−ER of assay compound)/(ER of positive−ER of negative)×100%. IC50 values of compounds were calculated by standard software for parameter fitting (GraphPad Prism 6.0).

[2] = In vitro stability in human liver microsome; type: in vitro ADME; details: liver microsomes, read-out: Human liver microsome t1/2
Source text: (§1) Based on the in vitro activity results, representative compounds were selected for assay studies on the stability in liver microsome, and the results were as follows.

[3] = In vitro stability in mouse liver microsome; type: in vitro ADME; details: liver microsomes, read-out: Mouse liver microsome t1/2
Source text: as §1

[4] = In vivo oral administration pharmacokinetics in mice; design: AUC: concentration or dose not given beside the values; details: mouse
Source text: Based on the in vitro activity results, representative compounds were selected for in vivo pharmacokinetic studies.
In Vivo Oral Administration—Pharmacokinetic Results in Mice: […]

[5] = test system: MV4-11 (leukemia); assay: Cell proliferation inhibition in vitro, CellTiter-Glo, MV4-11; type: cell-based; details: Homo sapiens; MV4-11 cells, 120 hours, CellTiter-Glo; read-out: MV4-11/IC50/μM
Protocol: (§2) By detecting the effect of compounds on cell activity in vitro in tumor cell lines TOV21G (ovarian cancer) and MV4-11 (leukemia), the inhibitory effect of compounds on cell proliferation was studied in this assay.
(§3) TOV21G cells and MV4-11 cells were purchased from American Type Culture Collection (ATCC).
MV-4-11 cells were cultured in IMDM medium (containing 20% of FBS). About 10,000 cells were inoculated in each well of a 96-well culture plate, and treated by adding different concentrations (0-10 μM) of compounds to be assayed. Each group was assayed in triplicate. Blank wells (containing medium only) and control wells (inoculated cells without being treated with drug) were set. Cells were cultured for 120 hours. 40 μL of Cell Titer-Glo solutions were added to each well, and the cells were incubated with shaking for 20 min in the dark. 100 μL of solution was transferred from each well to a 96-well blank plate, and the luminescence value was read by Biotek Synergy HI multifunctional microplate reader. Inhibition rate (%)=100%×(control well−assay well)/(control well−blank well)

[6] = test system: TOV21G (ovarian cancer); assay: Cell proliferation inhibition in vitro, CellTiter-Glo, TOV21G; type: cell-based; details: Homo sapiens; TOV21G cells, 120 hours, CellTiter-Glo; read-out: TOV21G/IC50/μM
Protocol: as §2, §3
TOV21G cells were cultured in MCDB105/M199 medium (containing 15% of FBS), and used for assaying when the cell confluence reached 85% or more. About 1000 cells were inoculated in each well of a 96-well culture plate, and cultured for 24 hours. Different concentrations (0-10 μM) of compounds to be assayed were added to treat the cells. Each group was assayed in triplicate. Blank wells (containing medium only) and control wells (inoculated cells without being treated with drug) were set. Cells were cultured for 120 hours. 40 μL of Cell Titer-Glo solutions (Promega, #G7573) were added to each well, and the cells were incubated with shaking for 20 min in the dark. 100 μL of solution was transferred from each well to a 96-well blank plate (Corning, #3917), and the luminescence value was read by Biotek Synergy H1 multifunctional microplate reader.

[7] = target: mTOR (Homo sapiens, UniProt P42345); assay: Kinase selectivity: inhibitory activity against mTOR; type: biochemical; details: 10 concentrations, 10 μM to 0.51 nM
Protocol: (§4) The compound of the present disclosure was assayed for inhibition of the same family (ATM, DNA-PK and mTOR):
(§5) According to the assay method reported in the literature, the compound to be assayed was serially diluted 3-fold to 0.51 nM starting from 10 μM (a total of 10 concentrations), and assayed for the inhibitory activities against kinases ATM^1, DNA-PK^2 and mTOR^3, respectively.

[8] = target: DNA-PK (Homo sapiens, UniProt P78527); assay: Kinase selectivity: inhibitory activity against DNA-PK; type: biochemical; details: 10 concentrations, 10 μM to 0.51 nM; read-out: IC50/DNAPK
Protocol: as §4, §5

[9] = target: ATM (Homo sapiens, UniProt Q13315); assay: Kinase selectivity: inhibitory activity against ATM; type: biochemical; details: 10 concentrations, 10 μM to 0.51 nM
Protocol: as §4, §5

Sequence of ATR kinase (Q13535 whole entry): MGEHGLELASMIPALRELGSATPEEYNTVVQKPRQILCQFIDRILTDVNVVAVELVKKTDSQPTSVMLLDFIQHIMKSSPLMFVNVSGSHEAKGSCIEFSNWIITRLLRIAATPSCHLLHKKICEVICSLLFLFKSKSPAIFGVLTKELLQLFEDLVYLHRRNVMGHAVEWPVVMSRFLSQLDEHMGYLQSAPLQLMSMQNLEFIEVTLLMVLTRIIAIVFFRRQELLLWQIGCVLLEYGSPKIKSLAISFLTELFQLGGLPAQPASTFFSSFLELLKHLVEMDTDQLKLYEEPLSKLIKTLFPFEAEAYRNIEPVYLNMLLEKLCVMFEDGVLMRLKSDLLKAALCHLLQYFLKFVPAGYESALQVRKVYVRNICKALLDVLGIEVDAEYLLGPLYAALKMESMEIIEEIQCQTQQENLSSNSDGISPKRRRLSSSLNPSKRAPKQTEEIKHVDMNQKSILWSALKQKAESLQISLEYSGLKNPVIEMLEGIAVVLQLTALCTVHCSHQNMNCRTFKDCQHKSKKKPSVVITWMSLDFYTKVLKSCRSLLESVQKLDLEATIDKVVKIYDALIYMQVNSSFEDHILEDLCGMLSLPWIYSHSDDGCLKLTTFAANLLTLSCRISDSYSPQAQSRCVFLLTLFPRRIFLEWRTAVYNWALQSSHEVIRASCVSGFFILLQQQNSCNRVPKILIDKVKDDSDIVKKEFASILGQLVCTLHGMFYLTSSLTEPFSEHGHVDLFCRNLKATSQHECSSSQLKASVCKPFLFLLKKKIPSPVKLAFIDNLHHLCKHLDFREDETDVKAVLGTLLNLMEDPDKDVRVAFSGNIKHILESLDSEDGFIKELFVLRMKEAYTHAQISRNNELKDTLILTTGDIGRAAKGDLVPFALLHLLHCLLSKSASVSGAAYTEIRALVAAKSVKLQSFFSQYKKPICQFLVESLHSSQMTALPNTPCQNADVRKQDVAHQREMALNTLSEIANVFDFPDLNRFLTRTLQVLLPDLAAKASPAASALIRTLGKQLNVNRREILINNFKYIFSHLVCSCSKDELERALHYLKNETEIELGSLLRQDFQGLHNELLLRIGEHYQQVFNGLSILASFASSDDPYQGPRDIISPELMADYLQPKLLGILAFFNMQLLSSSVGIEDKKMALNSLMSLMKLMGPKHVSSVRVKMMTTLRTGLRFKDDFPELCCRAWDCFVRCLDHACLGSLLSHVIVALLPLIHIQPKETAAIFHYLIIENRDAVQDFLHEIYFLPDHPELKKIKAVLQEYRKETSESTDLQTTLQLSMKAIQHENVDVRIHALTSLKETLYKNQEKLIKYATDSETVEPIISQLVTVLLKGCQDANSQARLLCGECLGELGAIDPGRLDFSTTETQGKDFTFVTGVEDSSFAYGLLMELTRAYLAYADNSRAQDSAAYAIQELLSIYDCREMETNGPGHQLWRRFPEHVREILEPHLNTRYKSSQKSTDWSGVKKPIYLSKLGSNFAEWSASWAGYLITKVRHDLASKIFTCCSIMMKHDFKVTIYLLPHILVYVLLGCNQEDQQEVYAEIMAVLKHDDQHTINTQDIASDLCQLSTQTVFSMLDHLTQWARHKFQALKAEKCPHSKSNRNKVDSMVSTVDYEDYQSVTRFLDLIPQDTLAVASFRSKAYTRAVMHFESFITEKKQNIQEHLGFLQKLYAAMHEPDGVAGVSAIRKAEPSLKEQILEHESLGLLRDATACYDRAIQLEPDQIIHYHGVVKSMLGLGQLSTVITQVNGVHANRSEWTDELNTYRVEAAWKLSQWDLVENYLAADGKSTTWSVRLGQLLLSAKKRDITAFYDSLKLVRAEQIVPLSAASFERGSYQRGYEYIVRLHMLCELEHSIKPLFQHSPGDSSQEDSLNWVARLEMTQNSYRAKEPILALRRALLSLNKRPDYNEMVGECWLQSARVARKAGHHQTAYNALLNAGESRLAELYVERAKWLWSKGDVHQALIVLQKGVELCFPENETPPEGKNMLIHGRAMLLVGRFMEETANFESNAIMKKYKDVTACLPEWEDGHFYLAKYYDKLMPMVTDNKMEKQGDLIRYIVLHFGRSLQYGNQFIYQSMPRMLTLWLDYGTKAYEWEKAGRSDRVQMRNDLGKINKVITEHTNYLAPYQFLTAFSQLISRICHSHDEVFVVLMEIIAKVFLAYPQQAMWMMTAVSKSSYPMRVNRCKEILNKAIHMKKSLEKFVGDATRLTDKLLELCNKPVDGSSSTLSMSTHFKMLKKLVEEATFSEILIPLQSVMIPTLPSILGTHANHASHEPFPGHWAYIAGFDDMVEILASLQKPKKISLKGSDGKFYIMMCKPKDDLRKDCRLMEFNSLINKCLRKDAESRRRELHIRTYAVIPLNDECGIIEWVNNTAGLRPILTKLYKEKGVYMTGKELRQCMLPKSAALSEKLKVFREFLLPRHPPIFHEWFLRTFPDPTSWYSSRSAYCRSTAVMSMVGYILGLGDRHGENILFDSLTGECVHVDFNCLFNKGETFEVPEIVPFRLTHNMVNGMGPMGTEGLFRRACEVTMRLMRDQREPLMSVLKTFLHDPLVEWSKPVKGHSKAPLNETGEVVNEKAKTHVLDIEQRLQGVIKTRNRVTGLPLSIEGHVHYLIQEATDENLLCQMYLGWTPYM
Sequence of ATR kinase (Q8WXE1 whole entry partner): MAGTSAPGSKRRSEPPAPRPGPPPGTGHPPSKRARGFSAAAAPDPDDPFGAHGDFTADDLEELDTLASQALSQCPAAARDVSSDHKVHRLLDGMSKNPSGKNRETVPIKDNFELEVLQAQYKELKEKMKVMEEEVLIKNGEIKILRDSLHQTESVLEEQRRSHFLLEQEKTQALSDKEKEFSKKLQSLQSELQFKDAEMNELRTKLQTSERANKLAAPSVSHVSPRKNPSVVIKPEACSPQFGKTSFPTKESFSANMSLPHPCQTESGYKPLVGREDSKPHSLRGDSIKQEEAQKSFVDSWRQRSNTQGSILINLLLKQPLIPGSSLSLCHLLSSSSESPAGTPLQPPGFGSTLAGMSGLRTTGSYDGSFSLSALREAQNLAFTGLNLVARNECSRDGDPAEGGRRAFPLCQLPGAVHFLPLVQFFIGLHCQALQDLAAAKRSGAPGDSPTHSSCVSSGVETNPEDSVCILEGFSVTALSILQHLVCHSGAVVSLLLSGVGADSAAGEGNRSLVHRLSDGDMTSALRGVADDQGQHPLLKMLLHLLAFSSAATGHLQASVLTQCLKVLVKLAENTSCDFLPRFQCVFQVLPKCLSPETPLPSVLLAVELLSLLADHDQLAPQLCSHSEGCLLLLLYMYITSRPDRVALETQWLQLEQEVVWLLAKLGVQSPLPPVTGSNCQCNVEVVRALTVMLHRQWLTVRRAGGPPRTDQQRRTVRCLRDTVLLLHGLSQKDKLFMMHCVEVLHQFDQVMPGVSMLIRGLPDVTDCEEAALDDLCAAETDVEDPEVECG

Row | SMILES | IC50 [1] | half-life [2] | half-life [3] | AUC [4] | Cmax [4] | Tmax [4] | half-life [4] | IC50 [5] | IC50 [6] | IC50 [7] | IC50 [8] | IC50 [9]
1 | Cc1nn(-c2cncc(F)c2)c(C)c1-c1cc(N2CCOC[C@H]2C)nc(-c2cc(F)cc3[nH]ccc23)n1 [Compound A11] | 10 nM | 0.733 h | 2.23 h | 15200 ng·h/mL | 1470 ng/mL | 3.3 h | 3 h | 0.214 µM | 0.291 µM |  |  | 
2 | Cc1nn(-c2cncc(F)c2)c(C)c1-c1cc(N2CCOC[C@H]2C)nc(-c2ccnc3[nH]ccc23)n1 [Compound A19] | 2 nM |  |  | 1730 ng·h/mL | 331 ng/mL | 1 h | 2.4 h | 0.312 µM | 0.237 µM |  |  | 
3 | Cc1nn(-c2cncc(F)c2)c(C)c1-c1cc(N2CCOC[C@H]2C)nc(-c2cccc3[nH]ccc23)n1 [Compound A17] | 5 nM | 1.08 h | 1.02 h | 8210 ng·h/mL | 815 ng/mL | 1.75 h | 2.3 h | 0.19 µM | 0.196 µM |  |  | 
4 | Cc1nn(-c2cncc(F)c2)c(C)c1-c1cc(N2CCOC[C@H]2C)nc(-c2cc(CO)cc3[nH]ccc23)n1 [Compound A22] | 5 nM |  |  | 1200 ng·h/mL | 865 ng/mL | 0.33 h | 1.4 h | 0.169 µM | 0.457 µM | 1160 nM | 284 nM | 2590 nM

The next lines start with the values.

Row | IC50 [1] | half-life [2] | half-life [3] | AUC [4] | Cmax [4] | Tmax [4] | half-life [4] | IC50 [5] | IC50 [6] | IC50 [7] | IC50 [8] | IC50 [9] | SMILES
5 | 11 nM |  |  | 8750 ng·h/mL | 1450 ng/mL | 2.8 h | 4.3 h | 0.231 µM | 0.194 µM |  |  |  | CNc1nc2ccccc2n1-c1nc(-c2c(C)nn(-c3cncc(F)c3)c2C)cc(N2CCOC[C@H]2C)n1 [Compound B1]
6 | 5 nM |  |  |  |  |  |  | 0.287 µM | 0.219 µM |  |  |  | CNc1nc2ccccc2n1-c1nc(-c2c(C)nn(-c3cncc(C(N)=O)c3)c2C)cc(N2CCOC[C@H]2C)n1 [Compound B10]
